Test results from the kinase profiling compilation of Christmann-Franck et al. (2016).
“And” between values parts separate entries of the source, which are not always exact repeats. Identical values can stand only once.

Experiments:
Test in all cases: radiometric filter-binding kinase assay, Kinase HotSpot
Settings in all cases: compound 0.5 µM; ATP 10 µM
ABL1 (human) = ABL1 (human) (UniProt P00519)
ACVRL1 (human) = ACVRL1 (human) (UniProt P37023)
BRSK1 (human) = BRSK1 (human) (UniProt Q8TDC3)
BRSK2 (human) = BRSK2 (human) (UniProt Q8IWQ3)
CAMK4 (human) = CAMK4 (human) (UniProt Q16566)
CDK1 CCNA2 (human) = CDK1 CCNA2 (human) (UniProt P06493+P20248)
CDK3 CCNE1 (human) = CDK3 CCNE1 (human) (UniProt Q00526+P24864)
CDK6 CCND3 (human) = CDK6 CCND3 (human) (UniProt P30281+Q00534)
CDK9 CCNT1 (human) = CDK9 CCNT1 (human) (UniProt P50750+O60563)
CLK1 (human) = CLK1 (human) (UniProt P49759)
CLK3 (human) = CLK3 (human) (UniProt P49761)
CLK4 (human) = CLK4 (human) (UniProt Q9HAZ1)
CSK (human) = CSK (human) (UniProt P41240)
CSNK1A1 (human) = CSNK1A1 (human) (UniProt P48729)
CSNK1G3 (human) = CSNK1G3 (human) (UniProt Q9Y6M4)
DAPK3 (human) = DAPK3 (human) (UniProt O43293)
DYRK1A (human) = DYRK1A (human) (UniProt Q13627)
EGFR (human) = EGFR (human) (UniProt P00533)
EPHB3 (human) = EPHB3 (human) (UniProt P54753)
GRK7 (human) = GRK7 (human) (UniProt Q8WTQ7)
IRAK4 (human) = IRAK4 (human) (UniProt Q9NWZ3)
KDR (human) = KDR (human) (UniProt P35968)
MAP3K14 (human) = MAP3K14 (human) (UniProt Q99558)
MAP3K5 (human) = MAP3K5 (human) (UniProt Q99683)
MAP4K5 (human) = MAP4K5 (human) (UniProt Q9Y4K4)
MARK2 (human) = MARK2 (human) (UniProt Q7KZI7)
MARK3 (human) = MARK3 (human) (UniProt P27448)
MKNK2 (human) = MKNK2 (human) (UniProt Q9HBH9)
NEK6 (human) = NEK6 (human) (UniProt Q9HC98)
PIM1 (human) = PIM1 (human) (UniProt P11309)
PRKCI (human) = PRKCI (human) (UniProt P41743)
PRKG1 (human) = PRKG1 (human) (UniProt Q13976)
PRKX (human) = PRKX (human) (UniProt P51817)
RAF1 (human) = RAF1 (human) (UniProt P04049)
RET (human) = RET (human) (UniProt P07949)
STK24 (human) = STK24 (human) (UniProt Q9Y6E0)
STK25 (human) = STK25 (human) (UniProt O00506)
STK3 (human) = STK3 (human) (UniProt Q13188)
TGFBR2 (human) = TGFBR2 (human) (UniProt P37173)
TSSK1B (human) = TSSK1B (human) (UniProt Q9BXA7)
VRK1 (human) = VRK1 (human) (UniProt Q99986)

Sequence of MKNK2 (human) (Q9HBH9 whole entry, looked up): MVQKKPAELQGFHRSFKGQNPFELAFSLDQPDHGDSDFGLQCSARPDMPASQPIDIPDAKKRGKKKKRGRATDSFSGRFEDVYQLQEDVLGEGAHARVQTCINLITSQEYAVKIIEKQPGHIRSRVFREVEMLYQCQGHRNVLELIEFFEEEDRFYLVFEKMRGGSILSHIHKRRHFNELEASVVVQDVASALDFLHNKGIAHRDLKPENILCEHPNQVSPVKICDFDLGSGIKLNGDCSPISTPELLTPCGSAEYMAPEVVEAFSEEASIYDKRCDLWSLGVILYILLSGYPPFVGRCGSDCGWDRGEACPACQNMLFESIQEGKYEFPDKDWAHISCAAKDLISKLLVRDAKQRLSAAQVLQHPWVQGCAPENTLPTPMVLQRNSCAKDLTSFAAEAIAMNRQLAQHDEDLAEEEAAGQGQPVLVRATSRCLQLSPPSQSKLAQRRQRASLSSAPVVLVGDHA
Sequence of MAP4K5 (human) (Q9Y4K4 whole entry, looked up): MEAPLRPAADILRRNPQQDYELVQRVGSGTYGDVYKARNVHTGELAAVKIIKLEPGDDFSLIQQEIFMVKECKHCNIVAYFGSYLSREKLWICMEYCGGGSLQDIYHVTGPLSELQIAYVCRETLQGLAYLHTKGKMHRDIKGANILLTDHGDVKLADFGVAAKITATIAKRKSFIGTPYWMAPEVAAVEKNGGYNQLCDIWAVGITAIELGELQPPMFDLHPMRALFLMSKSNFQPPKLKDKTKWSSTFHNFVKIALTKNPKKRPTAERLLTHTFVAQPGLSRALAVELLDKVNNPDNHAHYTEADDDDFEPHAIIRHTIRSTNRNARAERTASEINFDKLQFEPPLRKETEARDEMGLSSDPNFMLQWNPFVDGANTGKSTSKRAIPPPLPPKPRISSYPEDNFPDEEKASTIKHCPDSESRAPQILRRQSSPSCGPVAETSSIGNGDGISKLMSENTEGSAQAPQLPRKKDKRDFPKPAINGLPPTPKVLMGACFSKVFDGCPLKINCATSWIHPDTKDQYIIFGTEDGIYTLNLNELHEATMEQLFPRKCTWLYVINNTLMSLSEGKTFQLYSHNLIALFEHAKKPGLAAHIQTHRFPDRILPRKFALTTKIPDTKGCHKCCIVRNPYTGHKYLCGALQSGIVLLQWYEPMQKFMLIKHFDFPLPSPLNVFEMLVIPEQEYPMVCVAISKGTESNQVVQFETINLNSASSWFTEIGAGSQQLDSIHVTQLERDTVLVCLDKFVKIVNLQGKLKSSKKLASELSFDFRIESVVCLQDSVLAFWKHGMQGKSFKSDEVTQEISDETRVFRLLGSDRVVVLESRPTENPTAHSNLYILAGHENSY
Sequence of PIM1 (human) (P11309 whole entry, looked up): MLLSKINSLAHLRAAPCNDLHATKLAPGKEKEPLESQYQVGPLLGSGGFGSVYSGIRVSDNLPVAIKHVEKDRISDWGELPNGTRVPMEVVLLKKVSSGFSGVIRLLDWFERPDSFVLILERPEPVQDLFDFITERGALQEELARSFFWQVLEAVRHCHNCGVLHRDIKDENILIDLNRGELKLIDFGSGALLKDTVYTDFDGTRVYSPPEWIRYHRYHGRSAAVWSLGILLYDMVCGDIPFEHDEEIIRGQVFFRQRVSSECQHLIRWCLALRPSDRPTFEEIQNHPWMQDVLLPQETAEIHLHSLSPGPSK
Sequence of KDR (human) (P35968 whole entry, looked up): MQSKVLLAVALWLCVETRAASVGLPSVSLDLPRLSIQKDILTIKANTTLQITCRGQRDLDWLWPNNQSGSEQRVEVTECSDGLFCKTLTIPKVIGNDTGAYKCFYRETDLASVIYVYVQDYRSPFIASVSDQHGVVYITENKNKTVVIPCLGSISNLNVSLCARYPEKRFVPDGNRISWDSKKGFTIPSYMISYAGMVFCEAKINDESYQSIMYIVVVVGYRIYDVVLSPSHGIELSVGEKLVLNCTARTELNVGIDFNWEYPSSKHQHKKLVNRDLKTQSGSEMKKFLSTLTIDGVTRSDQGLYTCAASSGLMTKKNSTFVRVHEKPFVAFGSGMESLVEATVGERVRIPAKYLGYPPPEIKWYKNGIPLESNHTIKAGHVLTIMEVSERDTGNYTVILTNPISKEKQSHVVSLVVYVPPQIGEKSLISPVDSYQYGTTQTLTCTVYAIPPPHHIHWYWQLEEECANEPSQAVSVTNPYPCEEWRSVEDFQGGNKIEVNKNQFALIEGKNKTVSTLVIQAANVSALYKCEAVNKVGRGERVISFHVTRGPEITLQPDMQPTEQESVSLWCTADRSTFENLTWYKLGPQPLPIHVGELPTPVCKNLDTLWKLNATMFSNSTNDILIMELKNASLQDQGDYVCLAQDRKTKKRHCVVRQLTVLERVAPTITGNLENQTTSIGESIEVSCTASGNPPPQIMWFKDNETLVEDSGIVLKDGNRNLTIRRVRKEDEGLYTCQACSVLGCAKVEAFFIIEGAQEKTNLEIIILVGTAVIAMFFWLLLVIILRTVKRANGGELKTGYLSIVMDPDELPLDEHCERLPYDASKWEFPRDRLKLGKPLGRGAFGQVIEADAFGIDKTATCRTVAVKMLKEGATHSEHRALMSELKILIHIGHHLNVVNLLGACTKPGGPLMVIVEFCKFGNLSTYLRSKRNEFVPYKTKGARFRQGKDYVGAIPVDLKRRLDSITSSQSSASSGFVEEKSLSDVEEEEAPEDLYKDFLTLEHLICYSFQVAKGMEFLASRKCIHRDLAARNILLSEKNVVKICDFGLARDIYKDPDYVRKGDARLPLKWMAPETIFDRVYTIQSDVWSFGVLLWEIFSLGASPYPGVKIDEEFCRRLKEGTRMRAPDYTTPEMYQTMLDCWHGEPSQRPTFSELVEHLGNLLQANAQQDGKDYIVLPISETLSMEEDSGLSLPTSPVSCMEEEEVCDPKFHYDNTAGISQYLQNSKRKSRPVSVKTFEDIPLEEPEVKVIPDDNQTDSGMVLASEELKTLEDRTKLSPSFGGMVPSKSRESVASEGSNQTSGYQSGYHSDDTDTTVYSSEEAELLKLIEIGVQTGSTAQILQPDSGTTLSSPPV
Sequence of BRSK1 (human) (Q8TDC3 whole entry, looked up): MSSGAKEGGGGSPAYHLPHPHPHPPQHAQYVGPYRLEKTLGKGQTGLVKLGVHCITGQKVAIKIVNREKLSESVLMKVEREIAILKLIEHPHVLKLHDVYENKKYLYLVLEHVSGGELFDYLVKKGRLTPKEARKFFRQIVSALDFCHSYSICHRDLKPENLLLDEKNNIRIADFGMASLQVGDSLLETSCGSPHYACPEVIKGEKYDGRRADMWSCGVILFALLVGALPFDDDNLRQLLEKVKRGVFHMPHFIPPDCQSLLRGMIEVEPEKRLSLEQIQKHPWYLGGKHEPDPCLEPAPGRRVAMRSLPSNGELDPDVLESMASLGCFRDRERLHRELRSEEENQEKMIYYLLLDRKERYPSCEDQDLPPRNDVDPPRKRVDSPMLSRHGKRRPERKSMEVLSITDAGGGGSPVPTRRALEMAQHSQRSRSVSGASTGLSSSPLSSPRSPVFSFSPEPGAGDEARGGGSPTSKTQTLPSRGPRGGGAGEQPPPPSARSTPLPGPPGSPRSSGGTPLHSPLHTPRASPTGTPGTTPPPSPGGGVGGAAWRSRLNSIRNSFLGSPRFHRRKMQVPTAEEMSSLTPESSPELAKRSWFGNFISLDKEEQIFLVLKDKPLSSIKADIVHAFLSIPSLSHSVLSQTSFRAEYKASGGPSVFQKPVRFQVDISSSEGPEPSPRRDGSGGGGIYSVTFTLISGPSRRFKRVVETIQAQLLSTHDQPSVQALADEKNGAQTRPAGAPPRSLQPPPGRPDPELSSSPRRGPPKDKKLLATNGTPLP
Sequence of CSK (human) (P41240 whole entry, looked up): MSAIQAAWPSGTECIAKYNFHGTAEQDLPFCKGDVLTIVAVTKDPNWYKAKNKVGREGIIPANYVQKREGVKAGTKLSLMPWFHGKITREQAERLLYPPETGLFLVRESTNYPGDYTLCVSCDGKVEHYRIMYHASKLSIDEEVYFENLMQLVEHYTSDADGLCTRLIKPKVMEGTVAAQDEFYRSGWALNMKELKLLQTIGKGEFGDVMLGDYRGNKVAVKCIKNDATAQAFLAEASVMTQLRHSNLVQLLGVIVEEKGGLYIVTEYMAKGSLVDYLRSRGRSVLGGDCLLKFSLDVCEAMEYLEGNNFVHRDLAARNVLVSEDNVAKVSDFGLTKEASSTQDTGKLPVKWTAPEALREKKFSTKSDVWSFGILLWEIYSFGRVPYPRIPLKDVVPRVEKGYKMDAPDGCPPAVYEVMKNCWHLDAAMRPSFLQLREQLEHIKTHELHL
Sequence of RAF1 (human) (P04049 whole entry, looked up): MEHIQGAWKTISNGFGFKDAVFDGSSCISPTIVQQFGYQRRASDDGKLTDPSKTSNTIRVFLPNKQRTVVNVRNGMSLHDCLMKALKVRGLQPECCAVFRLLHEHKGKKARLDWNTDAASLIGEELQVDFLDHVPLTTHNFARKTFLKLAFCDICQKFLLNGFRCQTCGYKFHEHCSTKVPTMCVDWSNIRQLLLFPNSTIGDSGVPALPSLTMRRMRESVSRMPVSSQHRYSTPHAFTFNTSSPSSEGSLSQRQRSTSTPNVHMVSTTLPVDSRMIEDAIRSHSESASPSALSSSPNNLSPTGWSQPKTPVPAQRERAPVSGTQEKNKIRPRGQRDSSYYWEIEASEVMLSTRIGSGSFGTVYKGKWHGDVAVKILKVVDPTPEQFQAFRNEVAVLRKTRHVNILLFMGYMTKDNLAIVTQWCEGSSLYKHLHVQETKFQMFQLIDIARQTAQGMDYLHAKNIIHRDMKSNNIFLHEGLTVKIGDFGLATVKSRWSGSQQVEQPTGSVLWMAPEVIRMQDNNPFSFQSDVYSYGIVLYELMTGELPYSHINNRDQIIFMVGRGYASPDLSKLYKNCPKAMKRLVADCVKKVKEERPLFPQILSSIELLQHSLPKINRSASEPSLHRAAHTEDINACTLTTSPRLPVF

Nc1cccc(-c2cc3c(Oc4cccc(O)c4)ncnc3[nH]2)c1
residual activity (ABL1 (human)): 5.5% | residual activity (ACVRL1 (human)): 70.3% | residual activity (BRSK1 (human)): 83.1% | residual activity (BRSK2 (human)): 86.9% | residual activity (CAMK4 (human)): 94.9% | residual activity (CDK1 CCNA2 (human)): 99.3% | residual activity (CDK3 CCNE1 (human)): 82.3% | residual activity (CDK6 CCND3 (human)): 91.3% | residual activity (CDK9 CCNT1 (human)): 63.2% | residual activity (CLK1 (human)): 93% | residual activity (CLK3 (human)): 74% | residual activity (CLK4 (human)): 104% | residual activity (CSK (human)): 43.6% | residual activity (CSNK1A1 (human)): 61.8% | residual activity (CSNK1G3 (human)): 92.6% | residual activity (DAPK3 (human)): 94% | residual activity (DYRK1A (human)): 103% | residual activity (EGFR (human)): 7.89% | residual activity (EPHB3 (human)): 78.8% | residual activity (GRK7 (human)): 102% | residual activity (IRAK4 (human)): 88.2% | residual activity (KDR (human)): 6.7% | residual activity (MAP3K14 (human)): 69.6% | residual activity (MAP3K5 (human)): 94.9% | residual activity (MAP4K5 (human)): 18.4% | residual activity (MARK2 (human)): 79% | residual activity (MARK3 (human)): 77.5% | residual activity (MKNK2 (human)): 67.5% | residual activity (NEK6 (human)): 90.2% | residual activity (PIM1 (human)): 85.9% | residual activity (PRKCI (human)): 84.6% | residual activity (PRKG1 (human)): 103% | residual activity (PRKX (human)): 114% | residual activity (RAF1 (human)): 85.9% | residual activity (RET (human)): -0.229% | residual activity (STK24 (human)): 64.2% | residual activity (STK25 (human)): 91.6% | residual activity (STK3 (human)): 109% | residual activity (TGFBR2 (human)): 42.6% | residual activity (TSSK1B (human)): 91.1% | residual activity (VRK1 (human)): 81.6%

CC[n+]1c(/C=C/N(C)c2ccccc2)n(-c2ccccc2)c2ccc(-c3nc4ccccc4s3)cc21
residual activity (ABL1 (human)): 96.7% | residual activity (ACVRL1 (human)): 110% | residual activity (BRSK1 (human)): 101% | residual activity (BRSK2 (human)): 95.7% | residual activity (CAMK4 (human)): 93.2% | residual activity (CDK1 CCNA2 (human)): 98.8% | residual activity (CDK3 CCNE1 (human)): 92.2% | residual activity (CDK6 CCND3 (human)): 92.2% | residual activity (CDK9 CCNT1 (human)): 89.5% | residual activity (CLK1 (human)): 108% | residual activity (CLK3 (human)): 114% | residual activity (CLK4 (human)): 95.5% | residual activity (CSK (human)): 100% | residual activity (CSNK1A1 (human)): 106% | residual activity (CSNK1G3 (human)): 92.4% | residual activity (DAPK3 (human)): 95.4% | residual activity (DYRK1A (human)): 96.7% | residual activity (EGFR (human)): 103% | residual activity (EPHB3 (human)): 102% | residual activity (GRK7 (human)): 100% | residual activity (IRAK4 (human)): 173% | residual activity (KDR (human)): 93.9% | residual activity (MAP3K14 (human)): 96% | residual activity (MAP3K5 (human)): 100% | residual activity (MAP4K5 (human)): 91.7% | residual activity (MARK2 (human)): 91.6% | residual activity (MARK3 (human)): 98.8% | residual activity (MKNK2 (human)): 97.4% | residual activity (NEK6 (human)): 96.1% | residual activity (PIM1 (human)): 102% | residual activity (PRKCI (human)): 90.1% | residual activity (PRKG1 (human)): 104% and 105% | residual activity (PRKX (human)): 108% | residual activity (RAF1 (human)): 96.8% | residual activity (RET (human)): 95.6% | residual activity (STK24 (human)): 99.2% | residual activity (STK25 (human)): 96.5% | residual activity (STK3 (human)): 98.9% | residual activity (TGFBR2 (human)): 95.1% | residual activity (TSSK1B (human)): 102% | residual activity (VRK1 (human)): 90.9%

Cc1ccc(S(=O)(=O)/C=C/C#N)cc1
residual activity (ABL1 (human)): 98.7% | residual activity (ACVRL1 (human)): 100% | residual activity (BRSK1 (human)): 97.2% | residual activity (BRSK2 (human)): 99.4% | residual activity (CAMK4 (human)): 96.4% | residual activity (CDK1 CCNA2 (human)): 96.7% | residual activity (CDK3 CCNE1 (human)): 99.7% | residual activity (CDK6 CCND3 (human)): 104% | residual activity (CDK9 CCNT1 (human)): 98.2% | residual activity (CLK1 (human)): 107% | residual activity (CLK3 (human)): 106% | residual activity (CLK4 (human)): 89.7% | residual activity (CSK (human)): 97.2% | residual activity (CSNK1A1 (human)): 95.6% | residual activity (CSNK1G3 (human)): 88.3% | residual activity (DAPK3 (human)): 97.4% | residual activity (DYRK1A (human)): 107% | residual activity (EGFR (human)): 97.5% | residual activity (EPHB3 (human)): 104% | residual activity (GRK7 (human)): 92.6% | residual activity (IRAK4 (human)): 161% | residual activity (KDR (human)): 94.7% | residual activity (MAP3K14 (human)): 103% | residual activity (MAP3K5 (human)): 100% | residual activity (MAP4K5 (human)): 97.8% | residual activity (MARK2 (human)): 84% | residual activity (MARK3 (human)): 100% | residual activity (MKNK2 (human)): 119% | residual activity (NEK6 (human)): 108% | residual activity (PIM1 (human)): 101% | residual activity (PRKCI (human)): 90.3% | residual activity (PRKG1 (human)): 95.8% and 96.7% | residual activity (PRKX (human)): 102% | residual activity (RAF1 (human)): 104% | residual activity (RET (human)): 102% | residual activity (STK24 (human)): 89.3% | residual activity (STK25 (human)): 89.6% | residual activity (STK3 (human)): 93.6% | residual activity (TGFBR2 (human)): 97.9% | residual activity (TSSK1B (human)): 97.4% | residual activity (VRK1 (human)): 105%

COc1ccc2c(c[n+](C)c3c4cc5c(cc4ccc23)OCO5)c1OC
residual activity (ABL1 (human)): 92.7% | residual activity (ACVRL1 (human)): 99.2% | residual activity (BRSK1 (human)): 90.8% | residual activity (BRSK2 (human)): 97% | residual activity (CAMK4 (human)): 99.9% | residual activity (CDK1 CCNA2 (human)): 89.7% | residual activity (CDK3 CCNE1 (human)): 91.7% | residual activity (CDK6 CCND3 (human)): 94.6% | residual activity (CDK9 CCNT1 (human)): 96.4% | residual activity (CLK1 (human)): 101% | residual activity (CLK3 (human)): 95.2% | residual activity (CLK4 (human)): 89.9% | residual activity (CSK (human)): 106% | residual activity (CSNK1A1 (human)): 103% | residual activity (CSNK1G3 (human)): 92.5% | residual activity (DAPK3 (human)): 102% | residual activity (DYRK1A (human)): 103% | residual activity (EGFR (human)): 99.6% | residual activity (EPHB3 (human)): 95.4% | residual activity (GRK7 (human)): 101% | residual activity (IRAK4 (human)): 116% | residual activity (KDR (human)): 104% | residual activity (MAP3K14 (human)): 88.1% | residual activity (MAP3K5 (human)): 114% | residual activity (MAP4K5 (human)): 89.3% | residual activity (MARK2 (human)): 95% | residual activity (MARK3 (human)): 98.7% | residual activity (MKNK2 (human)): 107% | residual activity (NEK6 (human)): 104% | residual activity (PIM1 (human)): 97% | residual activity (PRKCI (human)): 98.3% | residual activity (PRKG1 (human)): 97.6% and 98.8% | residual activity (PRKX (human)): 95.1% | residual activity (RAF1 (human)): 96.7% | residual activity (RET (human)): 97% | residual activity (STK24 (human)): 84.2% | residual activity (STK25 (human)): 98.8% | residual activity (STK3 (human)): 102% | residual activity (TGFBR2 (human)): 71.6% | residual activity (TSSK1B (human)): 97.3% | residual activity (VRK1 (human)): 106%

Cc1ccc(NC2=CC(=O)c3sc(C)nc3C2=O)cc1
residual activity (ABL1 (human)): 90.8% | residual activity (ACVRL1 (human)): 101% | residual activity (BRSK1 (human)): 88.6% | residual activity (BRSK2 (human)): 93.1% | residual activity (CAMK4 (human)): 98.5% | residual activity (CDK1 CCNA2 (human)): 75.9% | residual activity (CDK3 CCNE1 (human)): 88.5% | residual activity (CDK6 CCND3 (human)): 99.6% | residual activity (CDK9 CCNT1 (human)): 97.6% | residual activity (CLK1 (human)): 100% | residual activity (CLK3 (human)): 98.6% | residual activity (CLK4 (human)): 99.1% | residual activity (CSK (human)): 102% | residual activity (CSNK1A1 (human)): 106% | residual activity (CSNK1G3 (human)): 90.1% | residual activity (DAPK3 (human)): 104% | residual activity (DYRK1A (human)): 103% | residual activity (EGFR (human)): 97.9% | residual activity (EPHB3 (human)): 89.2% | residual activity (GRK7 (human)): 101% | residual activity (IRAK4 (human)): 124% | residual activity (KDR (human)): 101% | residual activity (MAP3K14 (human)): 98.2% | residual activity (MAP3K5 (human)): 119% | residual activity (MAP4K5 (human)): 96.9% | residual activity (MARK2 (human)): 91.1% | residual activity (MARK3 (human)): 95.1% | residual activity (MKNK2 (human)): 89% | residual activity (NEK6 (human)): 106% | residual activity (PIM1 (human)): 96.8% | residual activity (PRKCI (human)): 96.9% | residual activity (PRKG1 (human)): 104% and 96.3% | residual activity (PRKX (human)): 96.8% | residual activity (RAF1 (human)): 90.5% | residual activity (RET (human)): 97.6% | residual activity (STK24 (human)): 82.8% | residual activity (STK25 (human)): 93.4% | residual activity (STK3 (human)): 105% | residual activity (TGFBR2 (human)): 77.6% | residual activity (TSSK1B (human)): 115% | residual activity (VRK1 (human)): 108%
